Assays:
human CB2 receptor = human CB2 receptor (Homo sapiens (Human), UniProt P34972); assay: cAMP assay, CHO cells expressing human CB2 receptors; type: cell-based; settings: functional cAMP assay, CHO cells expressing human CB2; read-out: human CB2 EC50
Description: (§1) CHO cells expressing human CB1 or CB2 receptors are seeded 17-24 hours prior to the experiment 50.000 cells per well in a black 96 well plate with flat clear bottom (Corning Costar #3904) in DMEM (Invitrogen No. 31331), lx HT supplement, with 10% fetal calf serum and incubated at 5% CO2 and 37° C. in a humidified incubator. The growth medium was exchanged with Krebs Ringer Bicarbonate buffer with 1 mM IBMX and incubated at 30° C. for 30 min. Compounds were added to a final assay volume of 100 μl and incubated for 30 min at 30° C. Using the cAMP-Nano-TRF detection kit the assay (Roche Diagnostics) was stopped by the addition of 50 μl lysis reagent (Tris, NaCl, 1.5% Triton X100, 2.5% NP40, 10% NaN3) and 50 μl detection solutions (20 μM mAb Alexa700-cAMP 1:1, and 48 μM Ruthenium-2-AHA-cAMP) and shaken for 2 h at room temperature. The time-resolved energy transfer is measured by a TRF reader (Evotec Technologies GmbH), equipped with a ND:YAG laser as excitation source. The plate is measured twice with the excitation at 355 nm and at the emission with a delay of 100 ns and a gate of 100 ns, total exposure time 10 s at 730 (bandwidth 30 nm) or 645 nm (bandwidth 75 nm), respectively. The FRET signal is calculated as follows: FRET=T730-Alexa730-P(T645-B645) with P=Ru730-B730/Ru645-B645, where T730 is the test well measured at 730 nM, T645 is the test well measured at 645 nm, B730 and B645 are the buffer controls at 730 nm and 645 nm, respectively. cAMP content is determined from the function of a standard curve spanning from 10 μM to 0.13 nM cAMP.
(§2) EC50 values were determined using Activity Base analysis (ID Business Solution, Limited). The EC50 values for a wide range of cannabinoid agonists generated from this assay were in agreement with the values published in the scientific literature.

human CB1 receptor = human CB1 receptor (Homo sapiens (Human), UniProt P21554); assay: cAMP assay, CHO cells expressing human CB1 receptors; type: cell-based; settings: functional cAMP assay, CHO cells expressing human CB1; read-out: human CB1 EC50
Sequence of human CB1 receptor (P21554 whole entry): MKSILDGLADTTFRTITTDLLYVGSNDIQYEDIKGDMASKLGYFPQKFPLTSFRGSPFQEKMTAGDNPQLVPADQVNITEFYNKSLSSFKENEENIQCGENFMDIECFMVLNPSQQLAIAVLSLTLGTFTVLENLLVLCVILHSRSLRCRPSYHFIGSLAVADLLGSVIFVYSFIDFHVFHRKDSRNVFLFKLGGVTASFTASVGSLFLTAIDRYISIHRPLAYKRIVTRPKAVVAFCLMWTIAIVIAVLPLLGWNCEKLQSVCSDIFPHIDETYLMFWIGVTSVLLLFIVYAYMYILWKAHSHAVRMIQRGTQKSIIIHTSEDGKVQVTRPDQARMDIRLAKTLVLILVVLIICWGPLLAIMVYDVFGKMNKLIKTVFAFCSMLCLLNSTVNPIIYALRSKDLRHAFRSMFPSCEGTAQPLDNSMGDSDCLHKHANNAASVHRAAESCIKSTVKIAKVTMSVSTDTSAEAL
Description: as §1, §2

Sequence of human CB2 receptor (P34972 whole entry): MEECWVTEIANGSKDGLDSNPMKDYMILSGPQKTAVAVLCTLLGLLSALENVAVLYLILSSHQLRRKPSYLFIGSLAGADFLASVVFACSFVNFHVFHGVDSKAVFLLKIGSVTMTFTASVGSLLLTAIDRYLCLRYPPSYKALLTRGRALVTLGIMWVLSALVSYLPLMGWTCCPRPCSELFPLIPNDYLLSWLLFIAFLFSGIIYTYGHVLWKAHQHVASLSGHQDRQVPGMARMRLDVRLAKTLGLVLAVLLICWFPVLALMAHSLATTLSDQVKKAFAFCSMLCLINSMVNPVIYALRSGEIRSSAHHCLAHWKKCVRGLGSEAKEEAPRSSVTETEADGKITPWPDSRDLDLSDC

Row | SMILES | EC50 (human CB2 receptor) | EC50 (human CB1 receptor)
1 | CC(C)(C)COc1nc(N2CCC(F)(F)C2)c2cnn(Cc3ccccc3C(F)(F)F)c2n1 [Example 38, 4-(3,3-Difluoropyrrolidin-1-yl)-6-(2,2-dimethylpropoxy)-1-[[2-(trifluoromethyl)phenyl]methyl]pyrazolo[3,4-d]pyrimidine] | 16 nM | > 10000 nM
2 | CC(C)(C)c1nc(N2CCC(F)(F)C2)c2cnn(CCc3ccccc3)c2n1 [Example 8, 6-tert-Butyl-4-(3,3-difluoro-pyrrolidin-1-yl)-1-phenethyl-1H-pyrazolo[3,4-d]pyrimidine] | 5.4 nM | > 10000 nM
3 | CC(C)(C)c1nc(N2CCC(F)(F)C2)c2cnn(Cc3ccccc3)c2n1 [Example 2, 1-Benzyl-6-tert-butyl-4-(3,3-difluoro-pyrrolidin-1-yl)-1H-pyrazolo[3,4-d]pyrimidine] | 3.3 nM | > 10000 nM
4 | CC(C)(C)c1nc(N2CCC(F)(F)C2)c2cnn(C3CCOC3)c2n1 (stereo not drawn) [Example 14, 6-tert-Butyl-4-(3,3-difluoro-pyrrolidin-1-yl)-1-(tetrahydro-furan-3-yl)-1H-pyrazolo[3,4-d]pyrimidine] | 1.3 nM | > 10000 nM
5 | Cc1nonc1Cn1ncc2c(N3CC[C@H](O)C3)nc(C(C)(C)C)nc21 [Example 25, (S)-1-[6-tert-Butyl-1-(4-methyl-furazan-3-ylmethyl)-1H-pyrazolo[3,4-d]pyrimidin-4-yl]-pyrrolidin-3-ol] | 0.4 nM | > 10000 nM
6 | Cc1nnc(Cn2ncc3c(N4CC=C(F)C4)nc(C(C)(C)C)nc32)n1C [Example 18, 6-tert-Butyl-1-(4,5-dimethyl-4H-[1,2,4]triazol-3-ylmethyl)-4-(3-fluoro-2,5-dihydro-pyrrol-1-yl)-1H-pyrazolo[3,4-d]pyrimidine] | 26.2 nM | > 10000 nM
7 | CC(C)(C)c1nc(N2CCC(F)(F)C2)c2cnn(Cc3ccccc3S(C)(=O)=O)c2n1 [Example 10, 6-tert-Butyl-4-(3,3-difluoro-pyrrolidin-1-yl)-1-(2-methanesulfonyl-benzyl)-1H-pyrazolo[3,4-d]pyrimidine] | 0.7 nM | 337 nM
8 | FC1(F)CCN(c2nc(Cl)nc3c2cnn3Cc2ccccc2C(F)(F)F)C1 [Example 37, 6-Chloro-4-(3,3-difluoropyrrolidin-1-yl)-1-[[2-(trifluoromethyl)phenyl]methyl]pyrazolo[3,4-d]pyrimidine] | 17.2 nM | > 10000 nM
9 | COc1ccc(Cn2ncc3c(N4CCC(F)(F)C4)nc(C(C)(C)C)nc32)cc1 [Example 1, 6-tert-Butyl-4-(3,3-difluoro-pyrrolidin-1-yl)-[(4-methoxyphenyl)methyl]-1H-pyrazolo[3,4-d]pyrimidine] | 4.8 nM | > 10000 nM

From patent US9512132B2, “Pyrazole compounds as CB2 agonists” (Hoffmann-La Roche Inc., priority 2013, dated 2016)
